Assays:
Septoria tritici [1] = assay: G1. Preventative control of leaf blotch on wheat caused by Septoria tritici (Septtr P1), green house; format: in vivo; settings: 300 pm active substance, % diseased leaf area, untreated control 90%
Procedure: The spray solutions were prepared in several steps:
The stock solution were prepared: a mixture of acetone and/or dimethylsulfoxide and the wetting agent/emulsifier Wettol, which is based on ethoxylated alkylphenoles, in a relation (volume) solvent-emulsifier of 99 to 1 was added to 25 mg of the compound to give a total of 5 ml. Water was then added to total volume of 100 ml.
This stock solution was diluted with the described solvent-emulsifier-water mixture to the given concentration.
G1. Preventative Control of Leaf Blotch on Wheat Caused by Septoria tritici (Septtr P1)
Leaves of pot-grown wheat seedling were sprayed to run-off with an aqueous suspension of the active compound or their mixture, prepared as described. The plants were allowed to air-dry. The next day the plants were inoculated with an aqueous spore suspension of Septoria tritici. Then the trial plants were immediately transferred to a humid chamber at 18-22° C. and a relative humidity close to 100%. After 4 days the plants were transferred to a chamber with 18-22° C. and a relative humidity close to 70%. After 4 weeks the extent of fungal attack on the leaves was visually assessed as % diseased leaf area.

Botritis cinerea = assay: G4. Preventative fungicidal control of Botritis cinerea on leaves of green pepper (Botrci P1), green house; format: in vivo; settings: 300 pm active substance, % diseased leaf area, untreated control 90%
Procedure: 1) Green House The spray solutions were prepared in several steps: The stock solution were prepared: a mixture of acetone and/or dimethylsulfoxide and the wetting agent/emulsifier Wettol, which is based on ethoxylated alkylphenoles, in a relation (volume) solvent-emulsifier of 99 to 1 was added to 25 mg of the compound to give a total of 5 ml. Water was then added to total volume of 100 ml. This stock solution was diluted with the described solvent-emulsifier-water mixture to the given concentration. G4. Preventative fungicidal control of Botritis cinerea on leaves of green pepper (Botrci P1 Young seedlings of green pepper were grown in pots to the 4 to 5 leaf stage. These plants were sprayed to run-off with an aqueous suspension, containing the concentration of active ingredient or their mixture mentioned in the table below. The next day the plants were inoculated with a aqueous biomalt solution containing the spore suspension of Botritis cinerea. Then the plants were immediately transferred to a humid chamber. After 5 days at 22 to 24° C. and a relative humidity close to 100% the extent of fungal attack on the leaves was visually assessed as % diseased leaf area.

Septoria tritici [2] = assay: M1. Microtest: activity against leaf blotch on wheat caused by Septoria tritici (Septtr), micro titer plate growth; format: cell-based; settings: 405 nm, 7 days after inoculation, relative growth vs active compound-free control (100%)
Procedure: Microtest The active compounds were formulated separately as a stock solution having a concentration of 10000 ppm in dimethyl sulfoxide. M1. Activity Against Leaf Blotch on Wheat Caused by Septoria tritici (Septtr) The stock solutions were mixed according to the ratio, pipetted onto a micro titer plate (MTP) and diluted with water to the stated concentrations. A spore suspension of Septoria tritici in an aqueous biomalt or yeast-bactopeptone-glycerine solution was then added. The plates were placed in a water vapor-saturated chamber at a temperature of 18° C. Using an absorption photometer, the MTPs were measured at 405 nm 7 days after the inoculation. The measured parameters were compared to the growth of the active compound-free control variant (100%) and the fungus-free and active compound-free blank value to determine the relative growth in % of the pathogens in the respective active compounds

Compound: C=CCOC(Cn1cncn1)c1ccc(Oc2ccc(Cl)cc2)cc1Cl (stereo not drawn)
- Disease (%) at 300 pm Septtr P1 (Septoria tritici [1]): 30%
- Disease (%) at 300 pm Botrci P1 (Botritis cinerea): 30%

Compound: COC(Cn1cncn1)c1ccc(Oc2ccc(Cl)cc2)cc1Cl (stereo not drawn)
- Disease (%) at 300 pm Septtr P1 (Septoria tritici [1]): 40%
- Growth (%) at 0.002 ppm Septtr (Septoria tritici [2]): 72%

Compound: C#CC(Cn1cncn1)(OC)c1ccc(Oc2ccc(Cl)cc2)cc1Cl (stereo not drawn) [I-1]
- Growth (%) at 0.002 ppm Septtr (Septoria tritici [2]): 14%

Compound: C=CC(Cn1cncn1)(OC)c1ccc(Oc2ccc(Cl)cc2)cc1Cl (stereo not drawn) [I-7, 1-[2-[2-chloro-4-(4-chlorophenoxy)phenyl]-2-methoxy-but-3-enyl]-1,2,4-triazole]
- Disease (%) at 300 pm Septtr P1 (Septoria tritici [1]): 0%

Compound: C=CCOC(C=C)(Cn1cncn1)c1ccc(Oc2ccc(Cl)cc2)cc1Cl (stereo not drawn) [I-8]
- Disease (%) at 300 pm Septtr P1 (Septoria tritici [1]): 0%

Compound: C=CCOC(C#CC)(Cn1cncn1)c1ccc(Oc2ccc(Cl)cc2)cc1Cl (stereo not drawn) [I-12]
- Disease (%) at 300 pm Septtr P1 (Septoria tritici [1]): 0%
- Disease (%) at 300 pm Botrci P1 (Botritis cinerea): 0%
